Data from ChEMBL document CHEMBL4483862, “Open-source discovery of chemical leads for next-generation chemoprotective antimalarials” (2018).

Tested on: Plasmodium berghei
Experiment: Luciferase/luciferin-expressing antifolate-resistant parasites were used to infect a culture of HepG2 cells that were pre-incubated with compounds. Infected hepatocytes emit light due to the luciferase reaction. Assay results are presented as the percent inhibition of light emission compared to control. […]
Assay type: functional
Details: sporozoite; for IC50: read-out: LUCIFERASE INFECTION ASSAY - IC50; for IC90: read-out: LUCIFERASE INFECTION ASSAY - IC90

Row | SMILES | IC50 [µM] | IC90 [µM]
1 | CCOC(=O)/C=C/C(=O)OCC(=O)NC(c1ccccc1)c1ccccc1 | > 10 | > 10
2 | C/C(=N\Nc1nc2ccccc2[nH]1)c1ccc(N2CCOCC2)cc1 | > 10 | > 10
3 | C/C(N)=C(/C#N)C(=O)COC(=O)c1cc(-c2cccc3ccccc23)nc2ccccc12 | > 10 | > 10
4 | Cc1noc2nc(C3CC3)cc(C(=O)Oc3ccc(N4CCCC4=O)cc3)c12 | > 10 | > 10
5 | Cc1ccc(Nc2nc(COC(=O)c3ccccc3Sc3ccc(C(F)(F)F)cc3[N+](=O)[O-])cs2)cc1 | > 10 | > 10
6 | CC(Sc1nnc2ccc(C(F)(F)F)cn12)C(=O)NCC1CCCO1 (stereo not drawn) | > 10 | > 10
7 | Nc1cc(-c2ccc(Br)s2)n[nH]1 | > 10 | > 10
8 | O=C(CNC(=O)c1ccc(N2CCCC2=O)cc1)NCCCn1cccn1 | > 10 | > 10
9 | Cc1ccc(-c2cc(C(=O)N(C)Cc3ccc(C(=O)NC4CC4)cc3)on2)cc1 | > 10 | > 10
10 | Cc1ccc(C(=O)Nc2ccnn2CC(C)C)cn1 | > 10 | > 10
11 | Nc1nc(SCc2cc(=O)n3c(n2)sc2ccccc23)nc2sccc12 | > 10 | > 10
12 | Cc1ccc2nc(NC(=O)c3ccc(OCc4nccn4C)cc3)sc2c1 | > 10 | > 10
13 | Cc1cc(C(=O)Nc2ccncc2Cl)c(C)s1 | > 10 | > 10
14 | NC(=O)c1cccc(CNc2cnn(CCOc3ccc(Cl)cc3)c(=O)c2Cl)c1 | 2.11 | > 10
15 | Cc1c(C(=O)OCc2ccccc2C(F)(F)F)sc2ncn(C)c(=O)c12 | 8.3 | > 10
16 | CC(OC(=O)c1cccc(Cl)c1N)C(=O)N(C(C)C)C(C)C (stereo not drawn) | > 10 | > 10
17 | Cn1c(=O)[nH]c(=O)c2c1nc(Nc1ccc(Cl)cc1Cl)n2CC(=O)O | > 10 | > 10
18 | CN(C)C(CNc1cc(C(=O)NC2CC2)c2ccccc2n1)Cc1ccccc1 (stereo not drawn) | > 10 | > 10
19 | N#Cc1cnc2c(Cl)cc(F)cc2c1Cl | > 10 | > 10
20 | COc1cccc(CC(=O)Nc2ccc(N3CCNC(=O)C3)c(Cl)c2)c1 | > 10 | > 10
21 | NC(=O)C1CN(S(=O)(=O)c2cc(Cl)sc2Cl)c2ccccc2O1 (stereo not drawn) | > 10 | > 10
22 | NC(=O)c1ccc(N2CCNCC2)nc1 | > 10 | > 10
23 | CN(CCO)C(=O)NCCC(c1ccccc1)c1ccccc1 | > 10 | > 10

Row | SMILES | IC50 [µM] | IC90 [µM]
24 | CN(Cc1ccccc1)C(=O)Nc1cccc2ncccc12 | > 10 | > 10
25 | O=C(Cc1csc(-c2ncccn2)n1)Oc1ccc(N2CCCC2=O)cc1 | > 10 | > 10
26 | Nc1nc(CSc2nccc(C(F)(F)F)n2)nc(Nc2ccc(F)cc2)n1 | > 10 | > 10
27 | COC(=O)C1CC2CCCCC2N1C(=O)c1nn(C)c(=O)c2ccccc12 (stereo not drawn) | > 10 | > 10
28 | CN(CC(=O)Nc1nc(-c2c[nH]c3ccccc23)cs1)C1CCCCC1 | > 10 | > 10
29 | N#Cc1ccc(NC(=O)C2CC2(Cl)Cl)cc1 (stereo not drawn) | > 10 | > 10
30 | Cc1cc(OCC(=O)NC(C)c2ccc(-n3cncn3)cc2)no1 (stereo not drawn) | > 10 | > 10
31 | CN(Cc1nc2ccccc2[nH]1)c1nccc(C(F)(F)F)n1 | > 10 | > 10
32 | O=C(C1CCCO1)N1CCn2c1nc1ccccc12 (stereo not drawn) | > 10 | > 10
33 | C=CCNC(=O)NCC(=O)Nc1ccc(OC)c(Cl)c1 | > 10 | > 10
34 | C=CCn1cnnc1SCC(=O)c1cccn1C | > 10 | > 10
35 | Cc1nc(Sc2ncnc3c(Br)cccc23)sc1CC(N)=O | > 10 | > 10
36 | O=C(Nc1cccc(Cl)c1)N1CCN(C(=O)c2ccoc2)CC1 | > 10 | > 10
37 | O=C(NC1CC1)c1ccc(CN(C2CC2)S(=O)(=O)c2cccc3c2N=S=N3)cc1 | > 10 | > 10
38 | Cn1c(N)c(C(=O)COC(=O)c2ccccc2NCCC2=CCCCC2)c(=O)n(C)c1=O | > 10 | > 10
39 | Cc1cc(NC(=O)C2CC2)sc1C(=O)N1CCNC(=O)C1 | > 10 | > 10
40 | CCCN(CC(=O)Nc1scc(-c2ccccc2)c1C(=O)OCC)Cc1nnc(-c2ccco2)o1 | > 10 | > 10
41 | CCCC1NC(=O)N(CC(O)COc2cccc(C(=O)OCC)c2)C1=O (stereo not drawn) | > 10 | > 10
42 | Cn1cc(/C=C/C(=O)c2ccc(-c3ccc(F)cc3)s2)cn1 | > 10 | > 10
43 | Cc1ccc(NC(=O)c2ccc(S(=O)(=O)N3CCOCC3)o2)cc1Cl | > 10 | > 10
44 | Cc1cc2oc(=O)cc(CN3CCN(S(=O)(=O)c4ccc([N+](=O)[O-])cc4)CC3)c2cc1Cl | 4.19 | 8.57
45 | Cn1c(NCCOc2cccc3c2OC(C)(C)C3)c(C#N)c(=O)n(C)c1=O | > 10 | > 10
46 | c1ccc(-c2nnc(CSC3=NCCS3)o2)cc1 | > 10 | > 10

Row | SMILES | IC50 [µM] | IC90 [µM]
47 | Cn1cc(S(=O)(=O)Nc2cccc(CN3C(=O)CNC3=O)c2)cc1C(N)=O | > 10 | > 10
48 | CC(C(=O)NC(C)(C)C)N1CCN(CC(=O)Nc2ccc(F)cc2)CC1 (stereo not drawn) | > 10 | > 10
49 | Cc1ccc(C)c(S(=O)(=O)CCN2C(=O)C(=O)N(Cc3cccs3)C2=O)c1 | > 10 | > 10
50 | Cc1cc(C(=O)Nc2nc3ccccc3s2)c(C)n1C(C)C | 0.121 | 0.946
51 | Cc1nn(CC(=O)Nc2cc(C(F)(F)F)ccc2Oc2ccc(Br)cc2)c(=O)c(C#N)c1C | > 10 | > 10
52 | CCNC(=O)CNC(=O)c1ccc(C(C)(C)C)cc1 | > 10 | > 10
53 | Cc1nc(Cc2nc(-c3ccc(S(C)(=O)=O)cc3)cs2)cs1 | > 10 | > 10
54 | Cc1ccc(-c2nc(C)sc2CC(=O)NC2CCN(C3CC3)C2)cc1 (stereo not drawn) | > 10 | > 10
55 | CN(Cc1cn(-c2ccccc2)nc1-c1ccccc1)C(=O)NCCCc1nc2ccccc2[nH]1 | > 10 | > 10
56 | COc1ccc(F)cc1-c1csc(-c2ccc(NC(=O)c3cccs3)cc2)n1 | > 10 | > 10
57 | CCN(CC)S(=O)(=O)c1ccc2nnc(Sc3nc(C)nc4sc5c(c34)CCCC5)n2c1 | > 10 | > 10
58 | O=S(=O)(C1=Cc2ccccc2CC1)N1CCOC2CCCCC21 (stereo not drawn) | > 10 | > 10
59 | Cc1cc(N2CCOCC2)ccc1NC(=O)CC1C=CCC1 (stereo not drawn) | > 10 | > 10
60 | COC(=O)c1cc([N+](=O)[O-])ccc1N1CCN(c2cc(C)nc(C(C)C)n2)CC1 | > 10 | > 10
61 | COC(=O)c1cc2ccccc2cc1OC(=O)COc1ccc(C#N)cc1 | > 10 | > 10
62 | CC(N)C(=O)NCC(F)(F)F (stereo not drawn) | > 10 | > 10
63 | N#Cc1ccccc1S(=O)(=O)Oc1ccccc1C(F)(F)F | > 10 | > 10
64 | Cc1sc(NC(=O)CC(C)NC(=O)c2ccccc2)nc1-c1ccc(F)c(F)c1 (stereo not drawn) | > 10 | > 10
65 | O=C(NCCCC(=O)N1CCC(c2ccc(O)cc2)CC1)c1ccsc1 | > 10 | > 10
66 | O=C(O)Cc1csc(-c2cc(Br)cs2)n1 | > 10 | > 10
67 | Cc1cc(C)n2nc(C(=O)OCC(=O)N(C)Cc3ccsc3)nc2n1 | > 10 | > 10
68 | Cc1nnc(-c2cccc(NC(=O)c3ccc4c(c3)CCO4)c2)[nH]1 | > 10 | > 10
69 | N#Cc1c(CCCNC(=O)/C=C/c2ccc(Cl)c(C(F)(F)F)c2)nn(-c2ccc(F)cc2)c1N | > 10 | > 10

Row | SMILES | IC50 [µM] | IC90 [µM]
70 | CC(C)(C)C(=O)N1CCC(C(=O)N(Cc2ccccc2)c2nc3c(s2)CCCC3)CC1 | > 10 | > 10
71 | CCOC(=O)C1=C(Cn2ccnc2)NC(=O)NC1CC (stereo not drawn) | > 10 | > 10
72 | Clc1ccc2c(NCCCNc3ccccn3)ncnc2c1 | > 10 | > 10
73 | Cc1ccc2nc(COc3ccc(C(=O)NC4(C)CCS(=O)(=O)C4)cc3)cn2c1 (stereo not drawn) | > 10 | > 10
74 | COc1ccc(-c2ccc(CCC(=O)Nc3sccc3C#N)o2)cc1 | 7.82 | > 10
75 | Cn1cnnc1-c1cccc(NC(=O)c2ccc(=O)n(Cc3ccccc3)n2)c1 | > 10 | > 10
76 | COC(=O)c1cccc2c1CCCN2C(=O)CCN1C(=O)C2CCCCC2C1=O (stereo not drawn) | > 10 | > 10
77 | CCN(CC)S(=O)(=O)c1ccc(=O)n(Cc2nc(N)nc(N(C)C)n2)c1 | > 10 | > 10
78 | NC(=O)N1CCCC(C(=O)N2CCCC(c3nc4ccccc4s3)C2)C1 (stereo not drawn) | > 10 | > 10
79 | CNS(=O)(=O)c1ccc(CCC(=O)OC2CCCCC2=O)cc1 (stereo not drawn) | > 10 | > 10
80 | CC(NC(=O)Nc1ccc(C#N)c(Cl)c1)c1cccs1 (stereo not drawn) | > 10 | > 10
81 | CCc1cc(Cl)n2nc(C(=O)OC)nc2n1 | > 10 | > 10
82 | O=C1/C(=C/c2ccc(-n3cncn3)c(F)c2)CSc2ccccc21 | > 10 | > 10
83 | O=C1COc2cc(C(=O)Oc3ccc4ccccc4c3Br)ccc2N1 | > 10 | > 10
84 | O=C(NCc1ccccn1)c1ccc2nc3n(c2c1)CCC3 | > 10 | > 10
85 | CCOc1cc(CN(C)c2cncc(-n3cccn3)n2)ccc1OC(F)F | > 10 | > 10
86 | Cc1cnc2c(S(=O)(=O)NCc3csc(-c4ccccc4)n3)cccc2c1 | > 10 | > 10
87 | CCn1c(=O)n(Cc2cc(Cl)c3c(c2)OCO3)c2ccccc21 | > 10 | > 10
88 | CCNC(=O)c1cccc(NC(=O)CCC(=O)c2cc(C)ccc2C)c1 | > 10 | > 10
89 | CC(C)(C)c1ccc(/C=C2\CCCc3c2nc2ccccc2c3C(=O)OCC(=O)N2CCOCC2)cc1 | 8.09 | > 10
